From the supplement of paper PMC10307832

Tests used:
Assay in all cases: relative viability (nuclei count vs DMSO), 5 days (fraction); higher = more cells survive
[1] = compound: O=C(O)c1ccc2c(c1)nc(Nc1cccc(Cl)c1)c1ccncc12 [Silmitasertib] + CC(C)C[C@H](NC(=O)[C@H](Cc1ccccc1)NC(=O)c1cnccn1)B(O)O [Bortezomib] (partner 0.002 µM)
Summary of the method: (§1)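 Dosing by pin tool came one day after lung cancer cell lines were seeded in 1536-well plates, using either one drug or a fixed anchor-drug dose plus five library-drug doses (not always all listed) in √10 steps. After 5 days, nuclei were counted on 4× images. Relative viability is treated-well nuclei count divided by vehicle-well nuclei count, and values are medians of duplicate plates.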

[2] = compound: O=C(O)c1ccc2c(c1)nc(Nc1cccc(Cl)c1)c1ccncc12 [Silmitasertib] + CCNC(=O)c1noc(-c2cc(C(C)C)c(O)cc2O)c1-c1ccc(CN2CCOCC2)cc1 [Luminespib] (partner 0.01 µM)
Summary of the method: as §1

[3] = compound: O=C(O)c1ccc2c(c1)nc(Nc1cccc(Cl)c1)c1ccncc12 [Silmitasertib] + COc1cc2c(Oc3ccc(NC(=O)C4(C(=O)Nc5ccc(F)cc5)CC4)cc3F)ccnc2cc1OCCCN1CCOCC1 [Foretinib] (partner 0.25 µM)
Summary of the method: as §1

[4] = compound: O=C(O)c1ccc2c(c1)nc(Nc1cccc(Cl)c1)c1ccncc12 [Silmitasertib] + Cc1cc(Nc2cc(N3CCN(C)CC3)nc(Sc3ccc(NC(=O)C4CC4)cc3)n2)n[nH]1 [Tozasertib] (partner 0.1 µM)
Summary of the method: as §1

[5] = compound: O=C(O)c1ccc2c(c1)nc(Nc1cccc(Cl)c1)c1ccncc12 [Silmitasertib] + O=C(CCCCCCC(=O)Nc1ccccc1)NO [Vorinostat] (partner 1 µM)
Summary of the method: as §1

Cell Line	relative viability ([1]; first compound 0.04 µM)	relative viability ([1]; first compound 0.4 µM)	relative viability ([1]; first compound 1.265 µM)	relative viability ([1]; first compound 4 µM)	relative viability ([2]; first compound 0.04 µM)	relative viability ([2]; first compound 0.4 µM)	relative viability ([2]; first compound 1.265 µM)	relative viability ([2]; first compound 4 µM)	relative viability ([3]; first compound 0.04 µM)	relative viability ([3]; first compound 0.4 µM)	relative viability ([3]; first compound 1.265 µM)	relative viability ([3]; first compound 4 µM)	relative viability ([4]; first compound 0.04 µM)	relative viability ([4]; first compound 0.4 µM)	relative viability ([4]; first compound 1.265 µM)	relative viability ([4]; first compound 4 µM)	relative viability ([5]; first compound 0.04 µM)	relative viability ([5]; first compound 0.4 µM)	relative viability ([5]; first compound 1.265 µM)	relative viability ([5]; first compound 4 µM)
SW 1573	1.09	1.15	1.02	0.977	0.243	0.215	0.179	0.164	0.882	0.801	0.744	0.202	0.199	0.185	0.231	0.187	1.17	0.661	0.908	0.577
UMC-11	0.679	0.588	0.65	0.542	1.2	1.1	0.861	0.613	1.19	1.16	1.11	0.619	0.199	0.218	0.184	0.16	0.388	0.522	0.439	0.333
